Data set [1] in a line: Direct capture of CO2 from ambient air, then electrochemical oxidation. The following applies: 0.2 M, 3.5 mL, bubbled with air 18 h at ca. 100 mL/min. The protocol:
(§1) FIGS. 8A-8C are related to direct air capture and stability test of 1-APyl radical 2 solution. […] 0.1, 0.2, and 0.4 M 1-APyl radical 2 aqueous solutions (1 mL) were bubbled with air at a flow rate of 3.3 mL/min at room temperature. […] The 1-APyl radical 2 solutions (0.2 M, 5 mL) were bubbled with dioxygen for 1 and 30 days (curve shading matching the shading of the labels in the figure) at a flow rate of 10 mL/min followed by contact with pure CO2 for an additional 12 min. The 1-APyl radical 2 solutions were sealed under nitrogen for 1 and 30 days followed by contact with pure CO2 for 12 min for the control experiments.
We next sought to expand the use of the 1-AP nitrate redox cycle to the direct capture of CO2 from ambient air (FIGS. 8A-8C). The 1-APyl radical dimer 3 solution (3.5 mL) was prepared by first reducing a 0.2 M 1-AP nitrate (1) solution, and then bubbling the solution with non-pretreated air for 18 h at a flow rate of ca. 100 mL/min (FIG. 8A). Electrochemical oxidation of the air-bubbled solution was carried out to evaluate the direct air capture efficiency. The system presented electron utilization during CO2 release of up to 0.78 with 36% cell capacity usage with the 0.2 M solution. […] Initial CO2 absorption rates from the ambient air were measured in 0.1, 0.2, and 0.4 M solutions of 1-APyl radical 2 (FIG. 8B). […]

Data set [2] is described as follows: Cyclic voltammetry of the redox-active amines. The settings on record: for Potential gap / Ep^oxi vs Ag/AgCl / Ep^red vs Ag/AgCl: Table 1; for Potential gap: gap between Ep^oxi and Ep^red; for Ep^oxi vs Ag/AgCl / Ep^red vs Ag/AgCl: techniques of Example 1.
Procedure: Potentials were recorded versus Ag/AgCl as a reference electrode.
Cyclic voltammetry (CV) was conducted to probe the mechanism of this process as depicted in FIG. 4E.
Each of structures 1-20 were assessed for electrochemical capture and release of carbon dioxide in accordance with the techniques described above in Example 1. Absorption capacities for carbon dioxide are reported in units of moles of CO2 per mole of amine. […] For the release experiments, 3.5 mL solutions of amine and captured carbon dioxide at concentrations ranging from 0.1-0.2 M of amine were electrochemically oxidized at a constant current of 50 mA while released CO2 was measured as a function of charge passed.
The nature of data set [3]: Electrochemical release of CO2 by constant-current oxidation in an H-cell (electron utilization). Further details: key to stable electron utilization: moles CO2 released per mole of electrons transferred. The following applies: for εCO2 (electron utilization during CO2 release): moles of CO2 released per moles of electrons, 0.1-0.2 M amine, constant current 50 mA. The method, then:
FIGS. 5A-5F are related to electrochemical release of CO2. FIG. 5A is a schematic of the experimental setup for CO2 release. […] The amount of released CO2 (curve A) and electron utilization (curve B) are shown versus electric charge.
A bench-scale setup using an electrochemical H-cell was constructed and tested for the capture and release of CO2 (FIG. 5A). The system was equipped with an anion exchange membrane separating two 5 mL reaction chambers, carbon felt as a working electrode, and a stainless steel wire electrode for an arbitrary reaction in the counter chamber. […] Then, pure CO2 was bubbled into the solution for 10 min to complete the saturation of the electrochemically generated 1-Apyl radical dimer 3 solution. […] The electron utilization (εCO2) during CO2 release on oxidation represents the ratio between the moles of CO2 released and the moles of electrons transferred (equation 1): […]

A short description of data set [4]: Cyclic stability of electrochemical CO2 capture and release over 5 cycles. The protocol:
FIGS. 7A-7D are related to cyclic stability of the electrochemical CO2 capture and release by 1-AP nitrate (1) redox system for 5 cycles.
The reversible capture and release of CO2 was tested over five cycles to evaluate the robustness of the 1-AP nitrate redox cycle (FIG. 7A-7D). The cyclic stability was evaluated with a 0.8 mmol amine solution and restricted to operate at 80% of the full capacity of the cell in order to minimize undesired side reactions. The gas output and CO2 fraction were monitored to show reproducible and stable capture and release of CO2 during five cycles under the applied current conditions. The gas release rate was steady at 0.75 mL/min, consistent with the release of one mole of CO2 per mole electrons transferred under steady current flow in each cycle.

A short description of data set [5]: CO2 absorption by electrochemically reduced amine solutions. The following applies: for CO2 capacity (absorption capacity): 1 mL aqueous 0.1-0.2 M amine, reduced, 15% CO2 inlet gas. The method, then: FIGS. 6A-6D are related to CO2 absorption dynamics in 1-APyl radical 2 solutions. […] 0.2 M 1-APyl radical 2 solution in 1 mL of water was contacted with the gas at a flow rate of 3.3 mL/min at room temperature. […] 1 mL of 0.04 M 1-APyl radical 2 solution was contacted with the gas at a flow rate of 3.3 mL/min at room temperature. […] A flow of 15% CO2 concentration balanced by nitrogen was used.
The changes in flow rate and concentration of CO2 were monitored by a CO2 flow meter and an FT-IR CO2 sensor, respectively.

Another data set in a line: Aqueous solubility. The settings on record: Table 1, aqueous solution. It counts as physicochemical.
The conditions of data set [6]: in water; cited from earlier work.
Data set [7] can be described thus: Stability test of 1-APyl radical solution (oxygen sensitivity and nitrogen controls). The settings on record: 0.2 M, 5 mL. Format: physicochemical. The protocol:
as §1
To test the stability of the 1-APyl radical in air, a set of experiments was carried out (FIG. 8C). Exposure to pure dioxygen (10 mL/min) of the 1-APyl radical 2 solution (0.2 M, 5 mL) for 1 and 30 days (see corresponding curve in FIG. 8C) followed by saturation with pure CO2 provided 6.6% and 46% decrease, respectively, of the capacity of the system compared to the output for the freshly CO2-saturated solution (see corresponding curve in FIG. 8C). […] Although further studies for the stability under the various conditions are warranted, operation in the presence of oxygen remains feasible.

[8] abbreviates: 20 mM in water, 0.1 M potassium nitrate, nitrogen, platinum working electrode, 20 mV/s, room temperature.

Bounds are passed on as bounds.

Take `N[n+]1ccccc1` [1-AP nitrate, 1-aminopyridinium]: the “cell capacity usage, direct air capture” value in data set [1] came out at 36%. Moreover, in data set [1] (50 mA), the “electron utilization during CO2 release, direct air capture” value is “up to 0.78”. Also, in data set [2] (setting [8]), the oxidative peak potential was −0.32 V vs. Ag/AgCl and the reductive peak potential is on record as −0.45 V vs. Ag/AgCl. The stable electron utilization in data set [3] (1 M 1-AP nitrate solution, 3.5 mL, 100 mA) is 1.25. In data set [3] (per g of 1-AP nitrate), the “capacity of the electrochemical CO2 release process” value is listed as 12.4 mmol/g. Further, the electron utilization result in data set [3] (solution prepared from 0.2 M 1-AP nitrate, 3.5 mL, 50 mA) was “up to 1.08”. Besides, the gas release rate in data set [4] (0.2 M, 0.8 mmol in 4 mL water, 50 mA, 80% of full capacity, each of 5 cycles) was determined as 0.75 mL/min. Besides, in data set [4] (5 cycles), the robustness over cycles result is “no significant loss in performance”.
On to `N#Cc1cc[n+](N)cc1.O=[N+]([O-])[O-]` [Entry 8], for which, in data set [2], the Potential gap is 1.43 V, the “Ep^oxi vs Ag/AgCl” value was determined as 0.88 V and the “Ep^red vs Ag/AgCl” value was −0.55 V. The “εCO2 (electron utilization during CO2 release)” value (“εCO2” below) in data set [3] (3.5 mL) amounted to 0.70. The “CO2 capacity (absorption capacity)” value in data set [5] (3.3 mL/min) is 1.65 moles of CO2 per mole of amine.
`N[n+]1c2ccccc2nc2ccccc21` [Entry 20, amino-phenazinium]: the solubility in “Aqueous solubility” (read-out: Low solubility (Observations)) is < 10 mM.
In the case of `NC(=O)c1cc[n+](N)cc1.O=[N+]([O-])[O-]` [Entry 7], in data set [2], the Potential gap is listed as 1.37 V, the “Ep^oxi vs Ag/AgCl” value amounted to 0.88 V and the “Ep^red vs Ag/AgCl” value is given as −0.49 V. Besides, the “εCO2” value in data set [3] (3.5 mL) amounted to 0.69. Moreover, in data set [5] (3.3 mL/min), the “CO2 capacity (absorption capacity)” value is 1.1 moles of CO2 per mole of amine.
For `CNc1cc[n+](N)cc1.O=[N+]([O-])[O-]` [Entry 12], in that order: 1.34 V, 0.87 V, −0.47 V, 0.91 and 1.6 moles of CO2 per mole of amine.
Consider `O=C(O)O` [carbonic acid], for which the pKa entry in data set [6] is listed as “approximately 6.8”.
As to `Cc1cccc(C)[n+]1N.[O-][Cl+3]([O-])([O-])[O-]` [Entry 17], in data set [2], the Potential gap came to 1.47 V, the “Ep^oxi vs Ag/AgCl” value amounted to 1.04 V and the “Ep^red vs Ag/AgCl” value is listed as −0.43 V.
As for `N[n+]1ccc(O)cc1` [Entry 9], in data set [2], the Potential gap came to 1.41 V, the “Ep^oxi vs Ag/AgCl” value is reported as 0.85 V and the “Ep^red vs Ag/AgCl” value is on record as −0.56 V. Further, in data set [3] (3.5 mL), the “εCO2” value is 0.32. In data set [5] (3.3 mL/min), the “CO2 capacity (absorption capacity)” value is 0.95 moles of CO2 per mole of amine.
Regarding `Cc1cc(C)c[n+](N)c1.[O-][Cl+3]([O-])([O-])[O-]` [Entry 18], in data set [2], the Potential gap was found to be 1.96 V, the “Ep^oxi vs Ag/AgCl” value is 1.52 V and the “Ep^red vs Ag/AgCl” value is −0.44 V.
On to `Cc1ccc[n+](N)c1.[O-][Cl+3]([O-])([O-])[O-]` [Entry 13], for which, in data set [2], the Potential gap turned out to be 1.47 V, the “Ep^oxi vs Ag/AgCl” value is 1.00 V and the “Ep^red vs Ag/AgCl” value is −0.47 V. Moreover, the “εCO2” value in data set [3] (3.5 mL) is reported as 0.83.
For `CC(C)(C)c1cc[n+](N)cc1.[O-][Cl+3]([O-])([O-])[O-]` [Entry 3], in data set [2], the Potential gap is listed as 1.31 V, the “Ep^oxi vs Ag/AgCl” value is on record as 0.83 V and the “Ep^red vs Ag/AgCl” value is −0.48 V. In addition, the “εCO2” value in data set [3] (3.5 mL) is 0.52. In addition, the “Low solubility (Observations)” value in “Aqueous solubility” is reported as “(<0.2M)”.
With “1-aminopyridinyl (1-APyl) radical [1-APyl radical 2]”, the “decrease of the capacity of the system” value is 54% in data set [7] (bubbled with nitrogen 10 mL/min, 30 days); 6.6% in data set [7] (pure dioxygen 10 mL/min, 1 day, vs freshly CO2-saturated solution); 46% in data set [7] (pure dioxygen 10 mL/min, 30 days); 7.2% in data set [7] (sealed under nitrogen, 1 day); 22% in data set [7] (sealed under nitrogen, 30 days). Further, the “stability in water (from quasi-reversible CV wave)” value in data set [2] (water, room temperature) is “stable in water at room temperature”. Also, in data set [5] (0.2 M in 1 mL water, 15% CO2 balanced by nitrogen), the “CO2 absorption rate compared with EDA and MEA” value is reported as “comparable”. Besides, in data set [5] (1, 4, 15 and 100% CO2 inlet gas streams, 3.3 mL/min, room temperature), the “constant CO2 capacity” value is recorded as 1.94 mole of CO2 per mole of amine.
As for `COc1cccc[n+]1N.O=[N+]([O-])[O-]` [Entry 16], in data set [2], the Potential gap came out at 2.46 V, the “Ep^oxi vs Ag/AgCl” value is 1.73 V and the “Ep^red vs Ag/AgCl” value is recorded as −0.73 V. Also, in data set [3] (3.5 mL), the “εCO2” value was determined as 0.76. For the same compound, the “CO2 capacity (absorption capacity)” value in data set [5] (3.3 mL/min) is 1.05 moles of CO2 per mole of amine.
For `Nc1ccc[n+](N)c1` [Entry 15], in that order: 1.73 V, 1.03 V, −0.70 V, 0.72 and 1.1 moles of CO2 per mole of amine.
As for `COc1ccc[n+](N)c1.[O-][Cl+3]([O-])([O-])[O-]` [Entry 14], in data set [2], the Potential gap was found to be 1.30 V, the “Ep^oxi vs Ag/AgCl” value was 0.84 V and the “Ep^red vs Ag/AgCl” value was −0.44 V. In addition, in data set [3] (3.5 mL), the “εCO2” value came out at 0.41.
In the case of `COc1cc[n+](N)cc1.[O-][Cl+3]([O-])([O-])[O-]` [Entry 4], in data set [2], the Potential gap turned out to be 1.75 V, the “Ep^oxi vs Ag/AgCl” value is recorded as 1.05 V and the “Ep^red vs Ag/AgCl” value was −0.70 V. Besides, in data set [3] (3.5 mL), the “εCO2” value was found to be 0.70. In addition, the “Low solubility (Observations)” value in “Aqueous solubility” is “(<0.2M)”.
With `CN(C)c1cc[n+](N)cc1` [Entry 6], in data set [2], the Potential gap was 1.28 V, the “Ep^oxi vs Ag/AgCl” value worked out at 0.85 V and the “Ep^red vs Ag/AgCl” value is given as −0.43 V. Besides, in data set [3] (3.5 mL), the “εCO2” value is recorded as 0.99. In data set [5] (3.3 mL/min), the “CO2 capacity (absorption capacity)” value was 2.0 moles of CO2 per mole of amine.
For `Nc1cc[n+](N)cc1` [Entry 5], in that order: 1.44 V, 1.02 V, −0.48 V, 0.99 and 2.3 moles of CO2 per mole of amine.
Take `COC(=O)c1cc[n+](N)cc1.F[B-](F)(F)F` [Entry 1]: the “Ep^red vs Ag/AgCl” value in data set [2] is −0.34 V.

The term solubility denotes how much of the substance goes into solution per volume.

The record behind these values is US20240307819A1, “ELECTROCHEMICAL TARGET SPECIES CAPTURE WITH A REDOX-ACTIVE AMINE” (Massachusetts Institute of Technology, priority 2021, published 2024).
